In PubChem BioAssay AID248 (DTP/NCI, 2004):
Toxic doses and inconclusive results are not listed. No stated cut-off is given here; in the data, active means T/C of 150% or more; inactive means T/C below 125%.

Test system: L1210 leukemia ip in BDF1 mice, survival T/C
Experiment: NCI In Vivo Anticancer Drug Screen. Data for tumor model L1210 Leukemia (intraperitoneal) in B6D2F1 (BDF1) mice
Conditions: endpoint: mean survival time, schedule: Q01DX001 (ip), higher = longer survival
Method in brief: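 Tumor cells were implanted, animals were treated, and survival was followed. The result divides the treated measurement by the vehicle-control measurement.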

Measured: T/C

Cc1ccc(S(=O)(=O)Oc2ccc(-c3ccc(Br)cc3)cc2)cc1
inactive: dose: 75.0 mg/kg/injection, vehicle: saline 97 % of control | dose: 150.0 mg/kg/injection, vehicle: saline 105 % of control | dose: 300.0 mg/kg/injection, vehicle: saline 105 % of control

CCOC(=O)P(=O)(OCC)OCC
inactive: dose: 100.0 mg/kg/injection, vehicle: carboxymethylcellulose (CMC) 101 % of control | dose: 200.0 mg/kg/injection, vehicle: carboxymethylcellulose (CMC) 95 % of control | dose: 400.0 mg/kg/injection, vehicle: carboxymethylcellulose (CMC) 104 % of control
